Assay [1] concerns the target T1, MMP-12 (macrophage metalloelastase) (Homo sapiens, UniProt P39900).
T1 construct: made in house
Briefly: Determination of the inhibition constant (Ki) for MMP-12, fluorogenic substrate. It counts as biochemical. The following applies: pH 7.6. On the procedure: MMP-12 (EC3.4.24.65) was cloned, expressed and purified according to Shapiro, S. D. et al., J Biol. Chem. 268, 23824-23829 (1993). […] Aliquots of MMP-12 were stored at −70° C.
The potency of inhibitors of MMP-12 was measured using either quartz cuvettes or microtiter plates. The activity of MMP-12 was measured using a fluorogenic substrate, Mca-Pro-Leu-Gly-Leu-Dpa-Ala-Arg-NH2 SEQ ID NO1, Knight, C. G. et al., FEBS Lett. 296,263-266 (1992), at 25° C. in an assay buffer containing 50 mM Tris, pH 7.6, 0.2 M sodium chloride, 50 mM calcium chloride, and 0.02% Brij-35. The increase in fluorescence due to cleavage of Gly-Leu peptide bond by MMP-12 was monitored with a Perkin-Elmer LS50B Fluorimeter (λex 328 nm, λem 393 nm, excitation slit 2.5, emission slit 10) for the cuvette assay and with a Molecular Devices Fmax fluorescence plate reader (λex 320 nm, λem 405 nm) for the microtiter plate assay. Substrate and inhibitor stock solutions were made in N,N-dimethylformamide (DMF) and 0.1% HCl-DMF, respectively.
Ki values were determined using the cuvette method by preparing a series of intermediate inhibitors solutions in 0.1% HCl-DMF and mixing the inhibitor with substrate (final concentration 2 μM) in a quartz cuvette containing 2 ml of assay buffer. MMP-12 was added to start the reaction at a concentration of 2 nM and progress curves were generated. For routine measurement of a Ki value for a reversible competitive inhibitor, the initial rates in the presence of at least four inhibitor concentrations (two concentrations above and two concentrations below the Ki) were measured [S]=2 μM (<<Km) and [MMP-12]=2 nM. Under these conditions, the measured Ki,app is close to the true Ki.
Ki values were determined using the microtiter plate method in a manner similar to that described for the cuvette method with some modifications. Four different inhibitor concentrations (50 μl in assay buffer) of each compound were added to separate wells of a microtiter plate and substrate was added (100 μl) to get a final concentration of […]. MMP-12 was added to a final concentration of 2 nM (50 μl) to start the reaction. Cleavage of substrate was recorded every 30 seconds for 30 minutes and progress curves were generated.
The Ki for a competitive inhibitor was calculated using: V0/Vi=(1+[I]/Ki,app) and Ki=Ki,app/(1+[S]/Km), where V0 is the initial rate in the absence of inhibitor, Vi is the initial rate in the presence of inhibitor at the concentration of [I], [S] is the substrate concentration, and Km is the Michaelis constant. If slow binding is observed (i.e. if the approach to the binding equilibrium is slow), the final steady-state rate rather than the initial rate is taken as Vi.

The target in assay [2] is T2, MMP-3 (Stromelysin-1) (Homo sapiens, UniProt P08254).
T2 construct: The active MMP-3 was obtained by treatment of proMMP-3 with trypsin; endogenous in cells; host or cells: human rheumatoid synovial fibroblasts stimulated with macrophage-conditioned medium; secreted proenzyme purified from culture medium
T2 sequence (P08254 100-477): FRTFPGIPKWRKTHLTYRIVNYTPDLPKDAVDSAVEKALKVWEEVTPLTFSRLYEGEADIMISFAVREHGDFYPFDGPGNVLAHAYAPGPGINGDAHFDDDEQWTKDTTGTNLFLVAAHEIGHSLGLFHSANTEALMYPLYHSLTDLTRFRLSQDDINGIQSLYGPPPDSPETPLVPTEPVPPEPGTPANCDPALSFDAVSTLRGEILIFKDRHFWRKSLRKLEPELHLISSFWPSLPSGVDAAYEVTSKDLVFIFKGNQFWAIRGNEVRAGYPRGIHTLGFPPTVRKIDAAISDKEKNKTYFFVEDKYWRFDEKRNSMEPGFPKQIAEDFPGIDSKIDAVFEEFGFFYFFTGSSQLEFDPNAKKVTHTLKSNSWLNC
Kind of assay: Determination of inhibition constant (Ki) for MMP-3, fluorogenic substrate. It counts as biochemical. To be noted: pH 7.6. On the procedure: ProMMP-3 (EC3.4.24.17; Stromelysin-1) was purified from culture medium of human rheumatoid synovial fibroblasts stimulated with macrophage-conditioned medium according to Okada, Y. et al., J. Biol. Chem. 261, 14245-14255 (1986). The active MMP-3 was obtained by treatment of proMMP-3 with trypsin (5 μg/mL) at 37° C. for 30 minutes, followed by addition of soybean trypsin inhibitor (50 μg/mL). Aliquots of the activated MMP-3 were stored at −20° C.
The activated MMP-3 is assayed using a fluorogenic substrate, Mca-Pro-Leu-Gly-Leu-Dpa-Ala-Arg-NH2, Knight, C. G. et al., FEBS Lett. 296, 263-266 (1992), at 37° C. in an assay buffer containing 50 mM Tris, pH 7.6, 0.2 M sodium chloride, 50 mM calcium chloride, and 0.02% Brij-35. The increase in fluorescence due to cleavage of Gly-Leu peptide bond by MMP-3 was monitored with Perkin-Elmer LS50B Fluorimeter (λex 328 nm, λem 393 nm, excitation slit 2.5, emission slit 10). Substrate and inhibitor stock solutions were made in DMF and 0.1% HCl-DMF, respectively. For determination of Ki values for MMP-3 inhibitors, a series of intermediate inhibitor solutions were prepared in 0.1% HCl-DMF and 1 or 2 μL of the diluted inhibitor solution was mixed with 1 μL of 2 mM substrate solution in DMF in a quartz cuvette containing 2 mL of assay buffer. The enzyme (10 μL of 0.2 μM MMP-3 dilution in assay buffer) was added at the last to start the reaction. For routine measurement of a Ki value for a reversible, competitive inhibitor, the initial rates in the presence of at least four inhibitor concentrations (two concentrations above Ki and two concentrations below Ki) were measured using [S]=1 μM (<<Km) and [MMP-3]=1 nM. Under these conditions, the measured Ki, app is close to true Ki.
The Ki for a competitive inhibitor is calculated using: v0/vi=(1+[I]/Ki, app) and Ki=Ki, app/(1+[S]/Km), where v0 is the initial rate in the absence of inhibitor, vi is the initial rate in the presence of inhibitor at the concentration of [I], [S] is the substrate concentration, and Km is the Michaelis constant. If slow binding is observed (i.e. if the approach to the binding equilibrium is slow), the final steady-state rate rather than the initial rate is taken as vi.

Where [3] appears, read: Table 1, Mca-Pro-Leu-Gly-Leu-Dpa-Ala-Arg-NH2, 25° C.
Setting [4] is: Table 1, Mca-Pro-Leu-Gly-Leu-Dpa-Ala-Arg-NH2, 37° C.

Counter-ions that a name gives are not always drawn.

T1 sequence (P39900 106-263 limits assumed): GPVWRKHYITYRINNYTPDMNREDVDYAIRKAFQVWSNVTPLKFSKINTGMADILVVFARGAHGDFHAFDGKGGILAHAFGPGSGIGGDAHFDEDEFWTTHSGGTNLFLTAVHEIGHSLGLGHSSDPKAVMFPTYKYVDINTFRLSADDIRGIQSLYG

For `CNC(=O)[C@H](Cc1ccccc1)NC(=O)[C@H](CCc1ccccc1)NC(=O)C(S)C(C)C` (stereo partly drawn) [Example 7, (S)-2-Mercapto-3-methylbutyroyl-(L)-homo-phenylalanyl-(L)-phenylalanine N-methyl amide, reference compound], the Ki (in general, a measure of affinity in units of concentration, obtained from inhibition or displacement) came out at 0.6 nM in assay [1] (Table 2 (comparative), method of Example D, 25° C.) and 10 nM in assay [2] (Table 2 (comparative), method of Example C, 37° C.).
On to `CC(C)[C@H](S)C(=O)N[C@@H](CCCCN)C(=O)N[C@@H](Cc1ccccc1)C(=O)O` [Example 5, (S)-2-Mercapto-3-methylbutyroyl-(L)-lysyl-(L)-phenylalanine trifluoroacetic acid salt], for which the Ki came to 151 nM in assay [1] (setting [3]) and 1550 nM in assay [2] (setting [4]).
Regarding `CC(C)C[C@H](NC(=O)[C@@H](S)C(C)C)C(=O)N[C@@H](Cc1ccccc1)C(=O)O` [Example 3, (S)-2-Mercapto-3-methylbutyroyl-(L)-leucyl-(L)-phenylalanine], the Ki in assay [1] (setting [3]) amounted to 14 nM; in assay [2] (setting [4]) it was 1410 nM.
Turning to `CSCC[C@H](NC(=O)[C@@H](S)C(C)C)C(=O)N[C@@H](Cc1ccccc1)C(=O)O` [Example 4, (S)-2-Mercapto-3-methylbutyroyl-(L)-methionyl-(L)-phenylalanine], the Ki in assay [1] (setting [3]) turned out to be 14 nM; in assay [2] (setting [4]), 449 nM.
